The values that follow come from patent publication US10308637B2 (LifeSci Pharmaceuticals, Inc., priority 2015, dated 2019).

Chain of human plasma kallikrein (P03952 391-638 limits assumed): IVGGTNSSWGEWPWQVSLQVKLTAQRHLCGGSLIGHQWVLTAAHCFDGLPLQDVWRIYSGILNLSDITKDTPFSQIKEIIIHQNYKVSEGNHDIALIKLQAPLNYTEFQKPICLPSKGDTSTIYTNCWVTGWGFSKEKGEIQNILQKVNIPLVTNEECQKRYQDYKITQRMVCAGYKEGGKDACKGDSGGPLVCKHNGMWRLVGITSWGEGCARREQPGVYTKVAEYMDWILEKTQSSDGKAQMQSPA
Chain of human plasma kallikrein (P03952 20-390 partner limits assumed): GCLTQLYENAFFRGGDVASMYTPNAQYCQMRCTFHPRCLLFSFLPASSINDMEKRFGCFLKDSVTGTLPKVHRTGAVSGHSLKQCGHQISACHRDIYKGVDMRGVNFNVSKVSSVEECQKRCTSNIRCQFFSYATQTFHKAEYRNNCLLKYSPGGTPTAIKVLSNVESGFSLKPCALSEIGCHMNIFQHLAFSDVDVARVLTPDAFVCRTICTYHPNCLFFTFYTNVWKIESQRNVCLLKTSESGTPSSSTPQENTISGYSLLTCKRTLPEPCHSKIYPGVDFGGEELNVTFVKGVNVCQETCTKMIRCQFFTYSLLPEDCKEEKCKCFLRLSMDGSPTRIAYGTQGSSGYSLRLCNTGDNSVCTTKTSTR

One assay deals with human plasma kallikrein (Homo sapiens (Human), UniProt P03952). As to the kind of experiment: In vitro enzyme inhibition of human plasma kallikrein (Pro-Phe-Arg-AMC cleavage). In kind it is biochemical. Conditions: Pro-Phe-Arg-AMC substrate, 37° C., read-out: hPK IC50. On the procedure:
The ability of the compounds disclosed herein to inhibit human plasma kallikrein activity was quantified according to the procedures below.
A 10 mM solution of the test compound was made in DMSO. […] A control tube containing only DMSO is included. 16 μL of each compound test solution was combined with 384 μL of assay buffer (50 mM Tris-HCl pH 7.5, 150 mM NaCl, 0.01% Triton X-100) to yield a “4× test compound buffer stock”.
These solutions are hereby referred to as 4×hPK and 2×PFR-AMC, respectively.
50 μL was removed from this mixture and placed into duplicate wells on a Microfluor 1Black U-bottom microtiter plate (Thermo Scientific). This plate was incubated for 5 minutes at 37° C. To each well, 50 µL of pre-warmed 2×PFR-AMC was added to start the enzymatic reaction. Cleavage of PFR-AMC was monitored in a Biotek Synergy H4 reader set at 37° C. Readings are taken every 43 seconds for 1 hour. […] The IC50 is calculated using the Gen5 (Biotek Instruments).
The ability of the compounds in Table 3 to inhibit human plasma kallikrein activity was determined.
Usually IC50 stands for the concentration at which inhibition is half-maximal. Turning to `Cc1cc(N)nc(C)c1CNC(=O)c1cc(Cc2ccc3ncc(Cl)cc3c2)nc(C(=O)O)c1` [Example 209, 4-((6-amino-2,4-dimethylpyridin-3-yl)methylcarbamoyl)-6-((3-chloroquinolin-6-yl)methyl)picolinic Acid], the IC50 was under 100 nM. Take “N-(3-chloro-6-fluoro-1H-indol-5-ylmethyl)-2-(2-cyano-quinolin-6-ylmethyl)-isonicotinamide [Example 130]”: the half-maximal inhibitory concentration (IC50) is under 100 nM.

Tested on in a further assay: not listed separately
As to the kind of experiment: Contact Assay (percentage inhibition from fluorescence intensity). Type of assay: biochemical.
Settings: not given
The protocol:
The percentage inhibition was calculated using the following equation:
[formula] where, Mean(BG) is the average value of the fluorescence intensity of the background wells and Mean(PC) is the average value of the fluorescence intensity of the positive control wells.
Table 4 provides the EC50 values of various compounds disclosed herein.
By EC50 is commonly meant the concentration at which the effect is half-maximal. Read a low EC50 as greater potency. Take `Cc1cc(N)nc(C)c1CNC(=O)c1cc(Cc2ccc3ncc(Cl)cc3c2)nc(C(=O)O)c1` [Example 209, 4-((6-amino-2,4-dimethylpyridin-3-yl)methylcarbamoyl)-6-((3-chloroquinolin-6-yl)methyl)picolinic Acid]: the EC50 lay within 100 to 1000 nM. The same measure, in the same setting: the figure for `CCCc1cnc2ccc(Cc3cc(C(=O)NCc4c(C)cc(N)nc4C)ccn3)cc2c1` [Example 255, N-((6-amino-2,4-dimethylpyridin-3-yl)methyl)-2-((3-propylquinolin-6-yl)methyl)isonicotinamide] is at most 100 nM.

Turning to `COc1cnc2ccc(Cc3cc(C(=O)NCc4c(C)cc(N)nc4C)ccn3)cc2c1` [Example 264, N-((6-amino-2,4-dimethylpyridin-3-yl)methyl)-2-((3-methoxyquinolin-6-yl)methyl)isonicotinamide], the EC50 is at most 100 nM. Still for that read-out and setting: the result for `Cc1cc(N)nc(C)c1CNC(=O)c1ccnc(Cc2cc(-c3nnn[nH]3)c3ncc(Cl)cc3c2)c1` [Example 272, N-((6-amino-2,4-dimethylpyridin-3-yl)methyl)-2-((3-chloro-8-(1H-tetrazol-5-yl)quinolin-6-yl)methyl)isonicotinamide] reads 100 to 1000 nM; that for `Cc1cc(N)nc(C)c1CNC(=O)c1ccnc(C(O)c2ccc3ncc(Cl)cc3c2)c1` (centres unmarked) [Example 275, N-((6-amino-2,4-dimethylpyridin-3-yl)methyl)-2-((3-chloroquinolin-6-yl)(hydroxy)methyl)isonicotinamide], 100 to 1000 nM. The same measure, in the same setting: the result for `Cc1cc(N)nc(C)c1CNC(=O)c1ccnc(C(N)c2ccc3ncc(Cl)cc3c2)c1` (centres unmarked) [Example 276, 2-[Amino-(3-chloro-quinolin-6-yl)-methyl]-N-(6-amino-2,4-dimethyl-pyridin-3-ylmethyl)-isonicotinamide] reads 100 to 1000 nM; that for `Cc1cc(N)nc(C)c1CNC(=O)c1ccnc(C(C)(O)c2ccc3ncc(Cl)cc3c2)c1` (centres unmarked) [Example 277, N-((6-amino-2,4-dimethylpyridin-3-yl)methyl)-2-(1-(3-chloroquinolin-6-yl)-1-hydroxyethyl)isonicotinamide], 100 to 1000 nM; that for `Cc1nc(N)ccc1CNC(=O)c1ccnc(Cc2ccc3ncc(CC(F)F)cc3c2)c1` [Example 279, N-((6-amino-2-methylpyridin-3-yl)methyl)-2-((3-(2,2-difluoroethyl)quinolin-6-yl)methyl)isonicotinamide], 100 to 1000 nM. The same measure, in the same setting: the figure for `CCc1cnc2ccc(Cc3cc(C(=O)NCc4ccc5c(N)nccc5c4)ccn3)cc2c1` [Example 283, N-((1-aminoisoquinolin-6-yl)methyl)-2-((3-ethylquinolin-6-yl)methyl)isonicotinamide] is at most 100 nM; for `CCc1cnc2ccc(Cc3cc(C(=O)NCc4c(C)cc(N)nc4C)ccn3)cc2c1` [Example 286, N-((6-amino-2,4-dimethylpyridin-3-yl)methyl)-2-((3-ethylquinolin-6-yl)methyl)isonicotinamide] it is at most 100 nM.

For `Cc1cnc2c(S(N)(=O)=O)cc(Cc3cc(C(=O)NCc4cc5c(Cl)c[nH]c5cc4F)ccn3)cc2c1` [Example 287, N-((3-chloro-6-fluoro-1H-indol-5-yl)methyl)-2-((3-methyl-8-sulfamoylquinolin-6-yl)methyl)isonicotinamide], the EC50 was at most 100 nM. On the same count and under the same terms, the figure for `Cc1cnc2c(S(N)(=O)=O)cc(Cc3cc(C(=O)NCc4n[nH]c5ccc(Cl)cc45)ccn3)cc2c1` [Example 288, N-((5-chloro-1H-indazol-3-yl)methyl)-2-((3-methyl-8-sulfamoylquinolin-6-yl)methyl)isonicotinamide] is 100 to 1000 nM; for `Cc1cnc2c(S(N)(=O)=O)cc(Cc3cc(C(=O)NCc4ccc5c(N)nccc5c4)ccn3)cc2c1` [Example 289, N-((1-aminoisoquinolin-6-yl)methyl)-2-((3-methyl-8-sulfamoylquinolin-6-yl)methyl)isonicotinamide] it is at most 100 nM; for `Cc1cnc2c(S(N)(=O)=O)cc(Cc3cc(C(=O)NCc4ccc5[nH]cc(Cl)c5c4F)ccn3)cc2c1` [Example 290, N-((3-chloro-4-fluoro-1H-indol-5-yl)methyl)-2-((3-methyl-8-sulfamoylquinolin-6-yl)methyl)isonicotinamide] it is 100 to 1000 nM. Consider `Cc1cnc2c(S(N)(=O)=O)cc(Cc3cc(C(=O)NCc4cnc5[nH]cc(Cl)c5c4)ccn3)cc2c1` [Example 291, N-((3-chloro-1H-pyrrolo[2,3-b]pyridin-5-yl)methyl)-2-((3-methyl-8-sulfamoylquinolin-6-yl)methyl)isonicotinamide], for which the EC50 was at most 100 nM.
